According to ChEMBL document CHEMBL4346693, “Exploring the PROTAC degron candidates: OBHSA with different side chains as novel selective estrogen receptor degraders (SERDs)” (Eur J Med Chem, 2019):
Activity calls are given as the source filed them. The rule behind the calls is not given here.

What was measured:
[1] = molecular target: T1, Estrogen receptor (Homo sapiens) (UniProt P03372); experiment: Induction of ERalpha protein degradation in human MCF7 cells at 5 uM incubated for 20 hrs by Western blot analysis relative to control; format: cell-based
T1 sequence (whole entry): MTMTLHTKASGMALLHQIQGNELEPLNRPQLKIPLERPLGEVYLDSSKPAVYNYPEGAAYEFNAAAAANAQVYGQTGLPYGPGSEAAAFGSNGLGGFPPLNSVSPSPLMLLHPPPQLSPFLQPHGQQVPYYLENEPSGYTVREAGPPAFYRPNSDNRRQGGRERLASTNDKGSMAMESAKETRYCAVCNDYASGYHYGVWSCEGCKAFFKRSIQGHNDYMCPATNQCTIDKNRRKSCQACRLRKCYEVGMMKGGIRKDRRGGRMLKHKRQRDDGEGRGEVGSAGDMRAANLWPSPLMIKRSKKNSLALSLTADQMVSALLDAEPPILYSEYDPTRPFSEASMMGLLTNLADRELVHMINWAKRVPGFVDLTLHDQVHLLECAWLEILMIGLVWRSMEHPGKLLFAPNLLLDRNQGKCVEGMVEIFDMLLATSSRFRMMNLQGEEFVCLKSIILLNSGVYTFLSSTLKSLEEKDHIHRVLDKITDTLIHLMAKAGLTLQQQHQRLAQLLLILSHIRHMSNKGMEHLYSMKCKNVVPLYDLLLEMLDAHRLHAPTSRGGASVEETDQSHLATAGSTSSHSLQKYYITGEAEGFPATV

[2] = molecular target: T1, Estrogen receptor (Homo sapiens); experiment: Binding affinity to purified human ERalpha LBD incubated for 2 hrs by fluorescence tracer based competitive fluorometric binding assay relative to estradiol
[3] = molecular target: Estrogen receptor beta (Homo sapiens) (UniProt Q92731); experiment: Binding affinity to ERbeta (unknown origin) incubated for 2 hrs by fluorescence tracer based competitive fluorometric binding assay relative to estradiol
[4] = molecular target: T1, Estrogen receptor (Homo sapiens); experiment: Induction of ERalpha protein degradation in human MCF7 cells assessed as ERalpha protein level at 10 uM incubated for 20 hrs by Western blot analysis relative to control; format: cell-based
MCF7 = experiment: cells; conditions: Homo sapiens, MCF7, 72 h
Description: Antiproliferative activity against human MCF7 cells incubated for 72 hrs by MTT assay

[5] = molecular target: T1, Estrogen receptor (Homo sapiens); experiment: Induction of ERalpha protein degradation in human MCF7 cells at 1 uM incubated for 20 hrs by Western blot analysis relative to control; format: cell-based
[6] = molecular target: T1, Estrogen receptor (Homo sapiens); experiment: Induction of ERalpha protein degradation in human MCF7 cells at 0.5 uM incubated for 20 hrs by Western blot analysis; format: cell-based
[7] = Clearance in Sprague-Dawley rat at 3 mg/kg, iv by LC-MS/MS analysis; format: ADME, organism-based; conditions: in vivo
[8] = Half life in Sprague-Dawley rat at 3 mg/kg, iv by LC-MS/MS analysis; format: ADME, organism-based; conditions: in vivo
[9] = Cmax in Sprague-Dawley rat at 3 mg/kg, iv by LC-MS/MS analysis; format: ADME, organism-based; design: dose 3 mg/kg, route intravenous; conditions: in vivo
[10] = AUC in Sprague-Dawley rat at 3 mg/kg, iv by LC-MS/MS analysis; format: ADME, organism-based; conditions: in vivo
[11] = Volume of distribution at steady state in Sprague-Dawley rat at 3 mg/kg, iv by LC-MS/MS analysis; format: ADME, organism-based; conditions: in vivo, read-out: Vdss
[12] = Half life in Sprague-Dawley rat at 10 mg/kg, po by LC-MS/MS analysis; format: ADME, organism-based; conditions: in vivo
[13] = Cmax in Sprague-Dawley rat at 10 mg/kg, po by LC-MS/MS analysis; format: ADME, organism-based; design: dose 10 mg/kg, route oral; conditions: in vivo
[14] = AUC in Sprague-Dawley rat at 10 mg/kg, po by LC-MS/MS analysis; format: ADME, organism-based; conditions: in vivo
[15] = Oral bioavailability in Sprague-Dawley rat at 10 mg/kg by LC-MS/MS analysis; format: ADME, organism-based; conditions: in vivo

Chain of Estrogen receptor beta (Homo sapiens) (Q92731 whole entry): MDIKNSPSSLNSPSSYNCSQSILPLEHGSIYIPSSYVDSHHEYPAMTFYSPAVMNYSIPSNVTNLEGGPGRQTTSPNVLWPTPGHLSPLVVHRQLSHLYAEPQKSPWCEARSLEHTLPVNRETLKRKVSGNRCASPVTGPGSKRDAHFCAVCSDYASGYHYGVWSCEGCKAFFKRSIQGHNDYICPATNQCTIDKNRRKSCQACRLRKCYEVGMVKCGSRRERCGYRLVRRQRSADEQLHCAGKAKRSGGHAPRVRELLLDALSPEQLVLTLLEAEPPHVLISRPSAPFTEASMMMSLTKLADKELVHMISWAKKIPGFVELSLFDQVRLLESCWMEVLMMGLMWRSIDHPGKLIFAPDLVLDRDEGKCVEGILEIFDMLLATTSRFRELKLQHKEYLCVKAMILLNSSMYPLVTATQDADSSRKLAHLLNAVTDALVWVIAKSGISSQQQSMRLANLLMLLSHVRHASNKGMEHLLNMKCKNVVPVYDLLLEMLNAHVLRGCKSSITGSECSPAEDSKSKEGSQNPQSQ

Row | SMILES | RBA [2] [%] | RBA [3] [%] | Activity [4] [%] | IC50 (MCF7) [µM] | also measured
1 | COc1ccc(N(CC(F)(F)F)S(=O)(=O)[C@H]2C[C@H]3O[C@@H]2C(c2ccc(O)cc2)=C3c2ccc(O)cc2)cc1 | – | – | – | – | Activity [1]: 100%
2 | COc1ccc(N(CC(F)(F)F)S(=O)(=O)[C@H]2C[C@H]3O[C@@H]2C(c2ccc(OCCCCCCC(=O)O)cc2)=C3c2ccc(O)cc2)cc1 (relative stereo) | 1.82 | 0.13 | 32 | 15.9 | –
3 | CCN(c1ccc(OCCN2CCCCC2)cc1)S(=O)(=O)[C@H]1C[C@H]2O[C@@H]1C(c1ccc(O)cc1)=C2c1ccc(O)cc1 (relative stereo) | 0.58 | 0.25 | 89 | 5.4 | –
4 | COc1ccc(N(CC(F)(F)F)S(=O)(=O)[C@H]2C[C@H]3O[C@@H]2C(c2ccc(OCCCCCCCC(=O)O)cc2)=C3c2ccc(O)cc2)cc1 (relative stereo) | 0.07 | < 0.01 | 42 | 40.3 | –
5 | CN(c1ccccc1)S(=O)(=O)[C@H]1C[C@H]2O[C@@H]1C(c1ccc(OCCN3CCCCC3)cc1)=C2c1ccc(O)cc1 (relative stereo) | 0.95 | 0.79 | 98 | 15.2 | –
6 | CCN(c1ccccc1)S(=O)(=O)[C@H]1C[C@H]2O[C@@H]1C(c1ccc(OCCCCCCCC(=O)O)cc1)=C2c1ccc(O)cc1 (relative stereo) | 1.2 | 0.4 | 79 | 27.4 | –
7 | CCN(c1ccccc1)S(=O)(=O)[C@H]1C[C@H]2O[C@@H]1C(c1ccc(OCCCCCCCCCCC(=O)O)cc1)=C2c1ccc(O)cc1 (relative stereo) | 0.93 | 0.13 | 51 | 10.3 | –
8 | CCN(c1ccccc1)S(=O)(=O)[C@H]1C[C@H]2O[C@@H]1C(c1ccc(OCCN3CCCCC3)cc1)=C2c1ccc(O)cc1 (relative stereo) | 2.51 | 0.81 | 95 | 12.9 | –
9 | O=S(=O)([C@H]1C[C@H]2O[C@@H]1C(c1ccc(OCC(O)CO)cc1)=C2c1ccc(O)cc1)N(CC(F)(F)F)c1ccc(Cl)cc1 (relative stereo) | 1.62 | < 0.01 | 38 | 16.8 | –
10 | COc1ccc(N(CC(F)(F)F)S(=O)(=O)[C@H]2C[C@H]3O[C@@H]2C(c2ccc(OCCCCCCCCCCC(=O)O)cc2)=C3c2ccc(O)cc2)cc1 (relative stereo) | 0.06 | 0.7 | 83 | 14.3 | –
11 | CCN(c1ccccc1)S(=O)(=O)[C@H]1C[C@H]2O[C@@H]1C(c1ccc(OCC(O)CO)cc1)=C2c1ccc(O)cc1 (relative stereo) | 0.26 | 0.28 | 117 | 33.6 | –
12 | CCN(c1ccc(OCC(O)CO)cc1)S(=O)(=O)[C@H]1C[C@H]2O[C@@H]1C(c1ccc(O)cc1)=C2c1ccc(O)cc1 (relative stereo) | 0.46 | 0.53 | 63 | 32.3 | –
13 | CCN(c1ccc(OCCCCCCCCCCC(=O)O)cc1)S(=O)(=O)[C@H]1C[C@H]2O[C@@H]1C(c1ccc(O)cc1)=C2c1ccc(O)cc1 (relative stereo) | 0.57 | < 0.01 | 29 | 18.4 | –
14 | CCN(c1ccc(OCCCCCCC(=O)O)cc1)S(=O)(=O)[C@H]1C[C@H]2O[C@@H]1C(c1ccc(O)cc1)=C2c1ccc(O)cc1 (relative stereo) | 1.22 | 0.41 | 92 | > 50 | –
15 | COc1ccc(N(CC(F)(F)F)S(=O)(=O)[C@H]2C[C@H]3O[C@@H]2C(c2ccc(OCCN4CCCC4)cc2)=C3c2ccc(O)cc2)cc1 (relative stereo) | 2.12 | 1.81 | 1 | 6.1 | Activity [5]: 100%; Activity [6]: Active; clearance [7]: 46 mL/min/kg; half-life [8]: 372 min; Cmax [9]: 1000 ng/mL; AUC [10]: 1080 ng·h/mL; Vd [11]: 9.55 L/kg; half-life [12]: 222 min; Cmax [13]: 50 ng/mL; AUC [14]: 330 ng·h/mL; bioavailability [15]: 9.2%
16 | CCN(c1ccc(OCCCCCCCC(=O)O)cc1)S(=O)(=O)[C@H]1C[C@H]2O[C@@H]1C(c1ccc(O)cc1)=C2c1ccc(O)cc1 (relative stereo) | 3.21 | 0.42 | 78 | 24.9 | –
17 | CC/C(=C(\c1ccc(O)cc1)c1ccc(OCCN(C)C)cc1)c1ccccc1 [AFIMOXIFENE] | – | – | – | 10.1 | –
